A value given as a limit tells only on which side of the number the result lay.

This assay addresses T1, human TLR7 (Homo sapiens, UniProt Q9NYK1).
T1 construct: expressed in transfected cells; host or cells: HEK293 cell line stably expressing the pNiFty2-SEAP reporter plasmid; TLR7 in pUNO vector, blasticidin selection
T1 sequence (Q9NYK1 27-1049): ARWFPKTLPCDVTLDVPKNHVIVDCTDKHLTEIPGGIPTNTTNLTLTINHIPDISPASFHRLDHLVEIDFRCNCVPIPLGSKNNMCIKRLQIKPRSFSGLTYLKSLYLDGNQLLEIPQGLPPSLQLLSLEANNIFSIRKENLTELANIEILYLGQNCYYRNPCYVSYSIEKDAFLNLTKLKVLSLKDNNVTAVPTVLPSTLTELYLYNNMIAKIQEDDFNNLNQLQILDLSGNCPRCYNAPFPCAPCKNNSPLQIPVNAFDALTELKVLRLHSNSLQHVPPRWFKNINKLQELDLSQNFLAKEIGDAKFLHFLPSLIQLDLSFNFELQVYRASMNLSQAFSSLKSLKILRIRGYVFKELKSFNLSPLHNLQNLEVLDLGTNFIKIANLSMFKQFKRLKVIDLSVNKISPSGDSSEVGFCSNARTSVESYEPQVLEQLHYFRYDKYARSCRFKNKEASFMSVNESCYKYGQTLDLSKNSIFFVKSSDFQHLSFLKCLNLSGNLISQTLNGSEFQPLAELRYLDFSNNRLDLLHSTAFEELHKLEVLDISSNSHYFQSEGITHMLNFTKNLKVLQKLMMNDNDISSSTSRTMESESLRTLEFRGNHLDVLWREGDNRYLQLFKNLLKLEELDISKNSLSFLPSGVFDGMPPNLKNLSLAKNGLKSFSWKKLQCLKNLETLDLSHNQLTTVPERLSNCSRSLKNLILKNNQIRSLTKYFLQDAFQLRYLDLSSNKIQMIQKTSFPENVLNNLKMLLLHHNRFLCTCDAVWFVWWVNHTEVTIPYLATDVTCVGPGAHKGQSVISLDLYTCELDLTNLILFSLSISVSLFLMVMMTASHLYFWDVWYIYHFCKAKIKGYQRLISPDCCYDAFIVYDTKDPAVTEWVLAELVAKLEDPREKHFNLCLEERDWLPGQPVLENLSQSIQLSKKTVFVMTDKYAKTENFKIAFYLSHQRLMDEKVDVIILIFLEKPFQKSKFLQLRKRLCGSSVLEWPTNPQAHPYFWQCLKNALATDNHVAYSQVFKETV
Description: Human TLR7 Assay (SEAP reporter in HEK293 cells).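 Also: Read-out is secreted alkaline phosphatase made under an NFkB/ELAM-1 composite promoter, reporting TLR7-triggered NFkB activation.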 Type of assay: cell-based. Conditions: HEK293 cell line expressing human TLR7 and pNiFty2-SEAP reporter, overnight incubation at 37° C., 0.1% DMSO; read-out: hTLR7 EC50.
Description: The most common variant sequence of human TLR7 (represented by the EMBL sequence AF240467) was cloned into the mammalian cell expression vector pUNO and transfected into a HEK293 cell line already stably expressing the pNiFty2-SEAP reporter plasmid; integration of the reporter gene was maintained by selection with the antibiotic zeocin. Transfectants with stable TLR7 expression were selected using the antibiotic blasticidin. In this reporter cell-line, expression of secreted alkaline phosphatase (SEAP) is controlled by an NFkB/ELAM-1 composite promoter comprising five NFkB sites combined with the proximal ELAM-1 promoter. TLR signaling leads to the translocation of NFkB and activation of the promoter results in expression of the SEAP gene. TLR7-specific activation was assessed by determining the level of SEAP produced following overnight incubation of the cells at 37° C. with the standard compound in the presence of 0.1% (v/v) dimethylsulfoxide (DMSO). Concentration dependent induction of SEAP production by compounds was expressed as the concentration of compound which produced half of the maximal level of SEAP induction for that compound (EC50).
Consider `CCN(CC)CC(=O)N(CCn1c(CCOC)nc2c(N)nc3ccccc3c21)Cc1cccc(OCC(=O)OC)c1` [Example 102, Methyl 2-{3-[(N-{2-[4-amino-2-(2-methoxyethyl)-1H-imidazo[4,5-c]quinolin-1-yl]ethyl}-2-{diethylamino}acetamido)methyl]phenoxy}acetate], for which the EC50 was greater than 10000 nM. For `CCOC(=O)C(C)Oc1cccc(CN(CCCn2c(CCOC)nc3c(N)nc4ccccc4c32)C(=O)CN(CC)CC)c1` (stereo not shown) [Example 52, Ethyl 2-{3-[(N-{3-[4-amino-2-(2-methoxyethyl)-1H-imidazo[4,5-c]quinolin-1-yl]propyl}-2-{diethylamino}acetamido)methyl]phenoxy}propanoate] the value was 24.2 nM; for `CCN(CC)CC(=O)N(CCCn1c(CCOC)nc2c(N)nc3ccccc3c21)Cc1ccc(C)c(OCC(=O)OC(C)C)c1` [Example 67, Isopropyl 2-{5-[(N-{3-[4-amino-2-(2-methoxyethyl)-1H-imidazo[4,5-c]quinolin-1-yl]propyl}-2-{diethylamino}acetamido)methyl]-2-methylphenoxy}acetate], 45.8 nM; for `COCCc1nc2c(N)nc3ccccc3c2n1CCCN(Cc1cccc(OCC(=O)OC(C)C)c1)C(=O)CN(C)C` [Example 113, Isopropyl 2-{3-[(N-{3-[4-amino-2-(2-methoxyethyl)-1H-imidazo[4,5-c]quinolin-1-yl]propyl}-2-{dimethylamino}acetamido)methyl]phenoxy}acetate], 83.4 nM. In the case of `CCN(C)CC(=O)N(CCCn1c(CCOC)nc2c(N)nc3ccccc3c21)Cc1cccc(OC(C)(C)C(=O)OC)c1` [Example 151, Methyl 2-{3-[(N-{3-[4-amino-2-(2-methoxyethyl)-1H-imidazo[4,5-c]quinolin-1-yl]propyl}-2-{ethyl(methyl)amino}acetamido)methyl]phenoxy}-2-methylpropanoate], the EC50 was 82 nM. The value for `CCOC(=O)COc1cccc(CN(CCCn2c(CCOC)nc3c(N)nc4ccccc4c32)C(=O)CN(C)C)c1F` [Example 95, Ethyl 2-{3-[(N-{3-[4-amino-2-(2-methoxyethyl)-1H-imidazo[4,5-c]quinolin-1-yl]propyl}-2-{dimethylamino}acetamido)methyl]-2-fluorophenoxy}acetate] was 447 nM; that for `COCCc1nc2c(N)nc3ccccc3c2n1CCOCCN(Cc1cccc(OCC(=O)OC(C)C)c1)C(=O)NCCN1CCCCC1` [Example 152, Isopropyl 2-(3-{[1-(2-{2-[4-amino-2-(2-methoxyethyl)-1H-imidazo[4,5-c]quinolin-1-yl]ethoxy}ethyl)-3-{2-(piperidin-1-yl)ethyl}ureido]methyl}phenoxy)acetate] was 266 nM.

`CCOC(=O)COc1cccc(CN(CCN2CCCCC2)C(=O)NCCCCn2c(CCOC)nc3c(N)nc4ccccc4c32)c1` [Example 130, Ethyl 2-{3-[(3-{4-[4-amino-2-(2-methoxyethyl)-1H-imidazo[4,5-c]quinolin-1-yl]butyl}-1-{2-(piperidin-1-yl)ethyl}ureido)methyl]phenoxy}acetate]: the EC50 turned out to be 24.4 nM. For the compound `COCCc1nc2c(N)nc3ccccc3c2n1CCCCN(CCCN1CCOCC1)Cc1cccc(OCC(=O)OC(C)C)c1` [Example 133, Isopropyl 2-{3-[({4-[4-amino-2-(2-methoxyethyl)-1H-imidazo[4,5-c]quinolin-1-yl]butyl}{3-morpholinopropyl}amino)methyl]phenoxy}acetate], the EC50 was 114 nM. The value for `COCCc1nc2c(N)nc3ccccc3c2n1CCCCN(Cc1ccc(F)c(OCC(=O)OC(C)C)c1)C(=O)NCCN1CCCCC1` [Example 139, Isopropyl 2-{5-[(1-{4-[4-amino-2-(2-methoxyethyl)-1H-imidazo[4,5-c]quinolin-1-yl]butyl}-3-{2-(piperidin-1-yl)ethyl}ureido)methyl]-2-fluorophenoxy}acetate] was 57 nM. Turning to `CCCCc1nc2c(N)nc3ccccc3c2n1CCCN(Cc1cccc(OC(C)(C)C(=O)OCC)c1)C(=O)CN(CC)CC` [Example 153, Ethyl 2-[3-({N-[3-(4-amino-2-butyl-1H-imidazo[4,5-c]quinolin-1-yl)propyl]-2-(diethylamino)acetamido}methyl)phenoxy]-2-methylpropanoate], the EC50 was determined as 86.1 nM.

As to `CCCCOC(=O)COc1cccc(CN(CCCn2c(CCOC)nc3c(N)nc4ccccc4c32)C(=O)CN(CC)CC)c1` [Example 83, Butyl 2-{3-[(N-{3-[4-amino-2-(2-methoxyethyl)-1H-imidazo[4,5-c]quinolin-1-yl]propyl}-2-{diethylamino}acetamido)methyl]phenoxy}acetate], the EC50 was 61.3 nM.

In the case of `CCN(CC)CC(=O)N(CCCn1c(CCOC)nc2c(N)nc3ccccc3c21)Cc1cccc(OCC(=O)OC2CCOCC2)c1` [Example 82, Tetrahydro-2H-pyran-4-yl 2-{3-[(N-{3-[4-amino-2-(2-methoxyethyl)-1H-imidazo[4,5-c]quinolin-1-yl]propyl}-2-{diethylamino}acetamido)methyl]phenoxy}acetate], the concentration giving a half-maximal response (EC50) turned out to be 115 nM. Turning to `CCOC(=O)C(CC)Oc1cccc(CN(CCCn2c(CCOC)nc3c(N)nc4ccccc4c32)C(=O)CN(CC)CC)c1` (stereo not shown) [Example 71, Ethyl 2-{3-[(N-{3-[4-amino-2-(2-methoxyethyl)-1H-imidazo[4,5-c]quinolin-1-yl]propyl}-2-{diethylamino}acetamido)methyl]phenoxy}butanoate], the concentration for a half-maximal effect (EC50) turned out to be 23 nM.

`COCCc1nc2c(N)nc3ccccc3c2n1CCCN(Cc1cccc(OCC(=O)OC(C)C)c1F)C(=O)CN(C)C` [Example 96, Isopropyl 2-{3-[(N-{3-[4-amino-2-(2-methoxyethyl)-1H-imidazo[4,5-c]quinolin-1-yl]propyl}-2-{dimethylamino}acetamido)methyl]-2-fluorophenoxy}acetate]: the EC50 worked out at 304 nM. The value for `CCCCc1nc2c(N)nc3ccccc3c2n1CCCN(Cc1ccc(OCC(=O)OC)cc1)C(=O)CN1CCN(CCOC)CC1` [Example 8, Methyl {4-[([3-(4-amino-2-butyl-1H-imidazo[4,5-c]quinolin-1-yl)propyl]{[4-(2-methoxyethyl)piperazin-1-yl]acetyl}amino)methyl]phenoxy}acetate] was 904 nM; that for `CCOCc1nc2c(N)nc3ccccc3c2n1CCCN(Cc1cccc(OCC(=O)OC(C)C)c1F)C(=O)CN(CC)CC` [Example 166, Isopropyl 2-{3-[(N-{3-[4-amino-2-(ethoxymethyl)-1H-imidazo[4,5-c]quinolin-1-yl]propyl}-2-{diethylamino}acetamido)methyl]-2-fluorophenoxy}acetate] was 475 nM; that for `CCCCc1nc2c(N)nc3ccccc3c2n1CCCN(Cc1cccc(OC(C)(C)C(=O)OC)c1)C(=O)CN(C)C` [Example 156, Methyl 2-[3-({N-[3-(4-amino-2-butyl-1H-imidazo[4,5-c]quinolin-1-yl)propyl]-2-(dimethylamino)acetamido}methyl)phenoxy]-2-methylpropanoate] was 168 nM. In the case of `CCOC(=O)COc1cccc(CN(CCCCn2c(CCOC)nc3c(N)nc4ccccc4c32)C(=O)NCCCN2CCCCC2)c1` [Example 128, Ethyl 2-{3-[(1-{4-[4-amino-2-(2-methoxyethyl)-1H-imidazo[4,5-c]quinolin-1-yl]butyl}-3-{3-(piperidin-1-yl)propyl}ureido)methyl]phenoxy}acetate], the EC50 was found to be 130 nM. For `CCOC(=O)COc1cccc(CN(CCCn2c(CCOC)nc3c(N)nc4ccccc4c32)C(=O)CN(CC)CC)c1F` [Example 93, Ethyl 2-{3-[(N-{3-[4-amino-2-(2-methoxyethyl)-1H-imidazo[4,5-c]quinolin-1-yl]propyl}-2-{diethylamino}acetamido)methyl]-2-fluorophenoxy}acetate] the value was 73.9 nM; for `CCOC(=O)COc1cc(CN(CCCn2c(CCOC)nc3c(N)nc4ccccc4c32)C(=O)CN(CC)CC)ccc1OC` [Example 62, Ethyl 2-{5-[(N-{3-[4-amino-2-(2-methoxyethyl)-1H-imidazo[4,5-c]quinolin-1-yl]propyl}-2-{diethylamino}acetamido)methyl]-2-methoxyphenoxy}acetate], 84.2 nM. The value for `CCCCc1nc2c(N)nc3ccccc3c2n1CCCN(Cc1ccc(OCC(=O)OC)cc1)C(=O)CN1CCCCC1` [Example 6, Methyl (4-{[[3-(4-amino-2-butyl-1H-imidazo[4,5-c]quinolin-1-yl)propyl](piperidin-1-ylacetyl)amino]methyl}phenoxy)acetate] was 169 nM.

(Values after US20110136801A1, “Novel Compounds” (Dainippon Sumitomo Pharma Co. Ltd., priority 2009, published 2011).)
